Test results reported in article PMC5557574 (Critical Care, 2017).
Read-outs that look alike come from different tables or passages of the source. Positions of bridges follow the written chain, without caps; N, C: chain ends. Non-standard residues stand in square brackets, D forms with d. Residues, ends and D or L forms follow the SMILES beside them. Orn(iPr) = CC(C)NCCC[C@H](N)C(=O)O; Aad = N[C@@H](CCCC(=O)O)C(=O)O

Assays:
[1] = cited from earlier work
[2] = set-up: method as in Ferring Pharmaceuticals, unpublished data; settings: healthy subjects; ref Ferring Pharmaceuticals, unpublished data; cited from earlier work
[3] = test system: healthy subjects; set-up: method as in Ferring Pharmaceuticals A/S, unpublished data; settings: 30 healthy subjects, infusion rates up to 3.0 ng/kg/minute for 6 h; ref Ferring Pharmaceuticals A/S, unpublished data; cited from earlier work
[4] = Pharmacokinetics in septic shock patients, two-compartment population pharmacokinetic model; assay type: in vivo, human; settings: for Initial elimination half-life / Time to steady state / clearance / Vd / half-life: mean (SD), SD; for clearance / Vd / half-life: human, in vivo, intravenous; for clearance: read-out: Clearance (total systemic) (converted); for Vd: read-out: Steady state volume; for half-life: read-out: Terminal elimination half-life (converted)
Description: Because the study drug infusion was administered according to need, the pharmacokinetic parameters steady-state concentration, total systemic clearance, distribution volume at steady state, and half-life were calculated by modeling using a two-compartment population pharmacokinetic model with random subject effects on clearance and distribution volume using WinNonlin®Pro (Pharsight Corp., Cary, NC, USA). Actual blood sampling time points were used for the calculations.
Data are generated by modelling the concentration data available from all subjects. Mean (SD)

[5] = test system: patients; settings: 30 patients, infusion rates of 3.75 ng/kg/minute and higher; ref Ferring Pharmaceuticals A/S, unpublished data; cited from earlier work
[6] = test system: patients in early septic shock; assay: Safety: treatment-emergent adverse events in the phase IIa trial; assay type: in vivo, human
Description: Secondary endpoints included pharmacodynamics, pharmacokinetics, safety (vital signs, central venous pressure, central venous oxygen saturation, electrocardiographic and cardiac function, respiratory function, clinical chemistry, hematology, hemostasis, and urinalysis), organ dysfunction, an indirect measure of vascular leakage (i.e., fluid balance), and morbidity. Treatment-emergent adverse events (occurrence from start of study drug to 48 h after infusion was stopped) were collated and evaluated. Morbidity and organ dysfunction were evaluated by time course of Sequential Organ Failure Assessment (SOFA) scores; days alive and free of organ dysfunction (using SOFA); proportion of patients off all vasopressors; days alive and out of intensive care unit (ICU); days alive and free of vasopressors; corticosteroids for sepsis treatment, dialysis, or mechanical ventilation at days 7, 14, and 28; ICU and hospital (up to day 28) lengths of stay; and plasma C-reactive protein (CRP), tumor necrosis factor (TNF)-α, interleukin (IL)-6, IL-10, and IL-1ra levels.

[7] = Selepressin 2.5 ng/kg/minute (n = 19), possibly or probably related
[8] = Selepressin 3.75 ng/kg/minute (n = 2), possibly or probably related

## terlipressin [reference compound]
[1]; in vivo
  Half-life (qualitative): long half-life

## CC[C@H](C)[C@@H]1NC(=O)[C@H](Cc2ccccc2)NC(=O)[C@@H](N)CSSC[C@@H](C(=O)N2CCC[C@H]2C(=O)N[C@@H](CCCNC(C)C)C(=O)NCC(N)=O)NC(=O)[C@H](CC(N)=O)NC(=O)[C@H](CCCC(N)=O)NC1=O [selepressin] (H-CFI[Aad](NH2)NCP[Orn(iPr)]G-NH2; disulfide 1-6)
[2]
  Terminal half-life: 1.5 h
[1]
  Half-life (qualitative, compared with vasopressin and terlipressin): intermediate
[3]
  Safety and tolerability: safe and well tolerated
[4]
  Initial distribution/elimination phase half-life: approximately 10 minutes
[4]; 1.25 ng/kg.min, N=10, modelled
  Initial elimination half-life: 0.18 (0.09) h
  Time to steady state: 7.6 (2.8) h
  clearance: 167 mL/min
  Vd: 25.5 L
  half-life: 2.5 h
[4]; 2.5 ng/kg.min, N=17, modelled
  Initial elimination half-life: 0.17 (0.06) h
  Time to steady state: 7.0 (2.3) h
  clearance: 218 mL/min
  Vd: 31.2 L
  half-life: 2.7 h
[4]; both dose groups
  Terminal half-life: 2.5 h
[4]; both infusion rates (1.25 and 2.5)
  Time to steady-state concentration: approximately 7 h
[5]
  Safety: did not raise any safety concerns
[6]; 1.25 ng/kg.min N=10
  Any severe TEAE: E (events): 8
  Any severe TEAE: N (%): 3 (30)
  Severe TEAE Acute respiratory distress syndrome: E (events): 1
  Severe TEAE Acute respiratory distress syndrome: N (%): 1 (10)
  Severe TEAE Ascites: E (events): 1
  Severe TEAE Ascites: N (%): 1 (10)
  Severe TEAE Cerebral hemorrhage: E (events): 1
  Severe TEAE Cerebral hemorrhage: N (%): 1 (10)
  Severe TEAE Disseminated intravascular coagulation: E (events): 1
  Severe TEAE Disseminated intravascular coagulation: N (%): 1 (10)
  Severe TEAE Hepatic failure: E (events): 1
  Severe TEAE Hepatic failure: N (%): 1 (10)
  Severe TEAE Hyperkalemia: E (events): 1
  Severe TEAE Hyperkalemia: N (%): 1 (10)
  Severe TEAE Mechanical ventilation complication: E (events): 1
  Severe TEAE Mechanical ventilation complication: N (%): 1 (10)
  Severe TEAE Oliguria: E (events): 1
  Severe TEAE Oliguria: N (%): 1 (10)
[6]; 2.5 ng/kg.min N=19
  Any severe TEAE: E (events): 6
  Any severe TEAE: N (%): 4 (21)
  Severe TEAE Myocarditis: E (events): 1
  Severe TEAE Myocarditis: N (%): 1 (5)
  Severe TEAE Peripheral ischemia: E (events): 1
  Severe TEAE Peripheral ischemia: N (%): 1 (5)
  Severe TEAE Pneumothorax: E (events): 1
  Severe TEAE Pneumothorax: N (%): 1 (5)
  Severe TEAE Respiratory distress: E (events): 2
  Severe TEAE Respiratory distress: N (%): 2 (11)
  Severe TEAE Urinary bladder hemorrhage: E (events): 1
  Severe TEAE Urinary bladder hemorrhage: N (%): 1 (5)
[6]; 2.5 ng/kg/minute group, one patient
  Adverse drug reactions judged as serious: myocarditis and peripheral ischemia
[6]; 3.75 ng/kg.min N=2
  Any severe TEAE: E (events): 2
  Any severe TEAE: N (%): 2 (100)
  Severe TEAE Cardio-respiratory arrest: E (events): 1
  Severe TEAE Cardio-respiratory arrest: N (%): 1 (50)
  Severe TEAE Myocardial ischemia: E (events): 1
  Severe TEAE Myocardial ischemia: N (%): 1 (50)
[6]; 3.75 ng/kg/minute group
  Adverse drug reactions judged as serious: myocardial ischemia
[6]; [7]
  Cyanosis, treatment-related adverse drug reaction: No. of subjects (%): 1 (5)
  Cyanosis, treatment-related adverse drug reaction: events: 1
  Hypertension, treatment-related adverse drug reaction: No. of subjects (%): 2 (11)
  Hypertension, treatment-related adverse drug reaction: events: 2
  Myocarditis, treatment-related adverse drug reaction: No. of subjects (%): 1 (5)
  Myocarditis, treatment-related adverse drug reaction: events: 1
  Peripheral ischemia, treatment-related adverse drug reaction: No. of subjects (%): 1 (5)
  Peripheral ischemia, treatment-related adverse drug reaction: events: 1
[6]; [8]
  Myocardial ischemia, treatment-related adverse drug reaction: No. of subjects (%): 1 (50)
  Myocardial ischemia, treatment-related adverse drug reaction: events: 1
[6]; selepressin 2.5 ng/kg/minute, septic shock patients
  Tolerability: well tolerated
[6]; selepressin dose groups, septic shock patients
  Tolerability (treatment-emergent adverse events vs placebo): well tolerated
[6]; septic shock patients, all dose groups
  Deaths related to ischemic event(s) attributable to selepressin: no deaths
